{"source": "ChEMBL document CHEMBL1201862", "about": "“PubChem BioAssay data set” (2004)", "key": {"Estrogen receptor beta": {"target": "Estrogen receptor beta (Homo sapiens, UniProt Q92731)", "sequence (Q92731 whole entry)": "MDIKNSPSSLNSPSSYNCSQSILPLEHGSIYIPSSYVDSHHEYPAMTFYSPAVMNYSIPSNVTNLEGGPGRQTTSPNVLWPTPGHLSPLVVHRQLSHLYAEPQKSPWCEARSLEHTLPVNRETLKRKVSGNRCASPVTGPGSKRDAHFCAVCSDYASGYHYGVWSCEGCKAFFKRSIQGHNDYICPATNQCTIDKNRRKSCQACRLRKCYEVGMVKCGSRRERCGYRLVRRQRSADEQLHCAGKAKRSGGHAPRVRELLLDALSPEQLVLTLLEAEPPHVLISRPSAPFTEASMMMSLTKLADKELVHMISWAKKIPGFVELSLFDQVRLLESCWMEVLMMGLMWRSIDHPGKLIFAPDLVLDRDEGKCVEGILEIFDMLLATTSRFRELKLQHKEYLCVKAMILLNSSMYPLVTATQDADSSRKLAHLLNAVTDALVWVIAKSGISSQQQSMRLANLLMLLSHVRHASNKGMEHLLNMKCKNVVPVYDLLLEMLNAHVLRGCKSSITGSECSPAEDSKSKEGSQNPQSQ", "assay": "blockers of SRC-3 recruitment to ERβ – biochemical, ELISA, streptavidin-HRP readout, orthogonal assay, confirmation (AID 1060)"}, "[1]": {"target": "Peroxisome proliferator-activated receptor gamma/Nuclear receptor coactivator 1 (Homo sapiens, UniProt P37231)", "sequence (P37231 whole entry)": "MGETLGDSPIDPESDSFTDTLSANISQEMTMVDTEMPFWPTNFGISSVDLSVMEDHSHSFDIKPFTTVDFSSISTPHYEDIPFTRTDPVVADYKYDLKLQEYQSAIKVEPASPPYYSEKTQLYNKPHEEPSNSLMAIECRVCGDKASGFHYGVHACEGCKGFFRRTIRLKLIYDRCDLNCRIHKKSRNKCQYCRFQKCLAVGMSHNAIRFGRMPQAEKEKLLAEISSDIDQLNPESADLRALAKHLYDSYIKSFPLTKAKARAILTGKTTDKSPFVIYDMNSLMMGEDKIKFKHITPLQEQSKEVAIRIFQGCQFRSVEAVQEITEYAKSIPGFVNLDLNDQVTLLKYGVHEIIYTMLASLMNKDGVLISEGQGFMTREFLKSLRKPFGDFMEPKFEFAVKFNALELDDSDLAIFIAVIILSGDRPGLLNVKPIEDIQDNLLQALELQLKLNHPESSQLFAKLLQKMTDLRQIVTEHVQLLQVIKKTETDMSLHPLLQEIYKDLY", "sequence (Q15788 whole entry, further chain)": "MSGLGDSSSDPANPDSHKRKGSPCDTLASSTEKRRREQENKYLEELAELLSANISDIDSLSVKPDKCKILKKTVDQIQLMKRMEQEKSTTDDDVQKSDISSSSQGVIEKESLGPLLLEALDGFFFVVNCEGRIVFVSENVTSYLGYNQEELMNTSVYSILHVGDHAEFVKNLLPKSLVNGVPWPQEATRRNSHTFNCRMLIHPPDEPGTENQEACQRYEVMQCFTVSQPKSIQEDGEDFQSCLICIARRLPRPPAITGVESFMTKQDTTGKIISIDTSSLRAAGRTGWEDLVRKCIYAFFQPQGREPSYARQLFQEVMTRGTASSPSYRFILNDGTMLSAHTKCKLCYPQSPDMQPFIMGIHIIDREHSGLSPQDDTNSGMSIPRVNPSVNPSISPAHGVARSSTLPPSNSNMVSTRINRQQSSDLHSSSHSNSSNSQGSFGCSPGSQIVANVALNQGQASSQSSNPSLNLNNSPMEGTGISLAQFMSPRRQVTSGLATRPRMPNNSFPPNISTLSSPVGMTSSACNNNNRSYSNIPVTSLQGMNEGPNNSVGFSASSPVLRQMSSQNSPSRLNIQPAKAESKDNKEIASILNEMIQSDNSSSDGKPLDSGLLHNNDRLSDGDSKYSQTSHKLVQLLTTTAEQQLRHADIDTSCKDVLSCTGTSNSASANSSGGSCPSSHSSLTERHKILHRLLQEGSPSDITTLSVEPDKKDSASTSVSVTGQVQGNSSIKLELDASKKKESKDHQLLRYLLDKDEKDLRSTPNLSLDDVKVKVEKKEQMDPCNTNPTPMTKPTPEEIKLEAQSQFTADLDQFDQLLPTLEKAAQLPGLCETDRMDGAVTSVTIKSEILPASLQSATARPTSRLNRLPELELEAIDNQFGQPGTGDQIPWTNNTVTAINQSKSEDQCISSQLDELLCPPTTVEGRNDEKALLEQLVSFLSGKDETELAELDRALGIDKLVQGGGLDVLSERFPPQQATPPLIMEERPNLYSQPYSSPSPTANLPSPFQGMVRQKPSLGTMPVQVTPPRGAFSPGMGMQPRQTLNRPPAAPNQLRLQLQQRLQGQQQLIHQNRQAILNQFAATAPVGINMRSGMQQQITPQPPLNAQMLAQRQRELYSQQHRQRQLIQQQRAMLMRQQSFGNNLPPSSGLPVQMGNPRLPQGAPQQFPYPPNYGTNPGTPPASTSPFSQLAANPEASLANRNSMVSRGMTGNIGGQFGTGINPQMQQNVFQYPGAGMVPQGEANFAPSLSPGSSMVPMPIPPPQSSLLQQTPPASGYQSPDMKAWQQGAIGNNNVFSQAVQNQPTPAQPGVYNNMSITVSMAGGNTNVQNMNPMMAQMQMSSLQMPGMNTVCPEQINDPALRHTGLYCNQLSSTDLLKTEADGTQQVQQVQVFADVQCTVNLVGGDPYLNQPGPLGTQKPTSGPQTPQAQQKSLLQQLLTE", "assay": "(§1) TR-FRET dose response biochemical High Throughput Screening assay for agonists of the steroid receptor coactivator 1 (SRC-1) recruitment by the peroxisome proliferator-activated receptor gamma (PPAR gamma): non-selective agonists. [Related pubchem assays (depositor defined):AID1300, AID1808, AID504735, AID631]", "assay_type": "protein assay"}, "[2]": {"target": "Mothers against decapentaplegic homolog 3 (Homo sapiens, UniProt P84022)", "sequence (P84022 whole entry)": "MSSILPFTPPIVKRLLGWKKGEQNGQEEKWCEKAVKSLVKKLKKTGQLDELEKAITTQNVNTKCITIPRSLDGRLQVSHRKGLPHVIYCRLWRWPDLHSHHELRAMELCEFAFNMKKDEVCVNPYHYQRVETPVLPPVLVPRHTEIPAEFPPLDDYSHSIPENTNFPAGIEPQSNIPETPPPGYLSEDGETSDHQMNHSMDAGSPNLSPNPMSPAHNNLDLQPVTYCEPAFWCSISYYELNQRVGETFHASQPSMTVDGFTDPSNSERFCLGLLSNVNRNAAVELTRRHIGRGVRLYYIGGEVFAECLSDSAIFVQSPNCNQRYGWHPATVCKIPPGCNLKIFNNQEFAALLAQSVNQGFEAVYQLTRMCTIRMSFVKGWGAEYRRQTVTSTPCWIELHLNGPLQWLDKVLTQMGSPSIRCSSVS", "assay": "inhibitors of SMAD-driven TGF-beta signaling – dose response (AID 715)", "assay_type": "functional"}, "[3]": {"target": "Peroxisome proliferator-activated receptor gamma/Nuclear receptor coactivator 3 (Homo sapiens, UniProt P37231)", "sequence (P37231 whole entry)": "as the sequence (P37231 whole entry) above", "sequence (Q9Y6Q9 whole entry, further chain)": "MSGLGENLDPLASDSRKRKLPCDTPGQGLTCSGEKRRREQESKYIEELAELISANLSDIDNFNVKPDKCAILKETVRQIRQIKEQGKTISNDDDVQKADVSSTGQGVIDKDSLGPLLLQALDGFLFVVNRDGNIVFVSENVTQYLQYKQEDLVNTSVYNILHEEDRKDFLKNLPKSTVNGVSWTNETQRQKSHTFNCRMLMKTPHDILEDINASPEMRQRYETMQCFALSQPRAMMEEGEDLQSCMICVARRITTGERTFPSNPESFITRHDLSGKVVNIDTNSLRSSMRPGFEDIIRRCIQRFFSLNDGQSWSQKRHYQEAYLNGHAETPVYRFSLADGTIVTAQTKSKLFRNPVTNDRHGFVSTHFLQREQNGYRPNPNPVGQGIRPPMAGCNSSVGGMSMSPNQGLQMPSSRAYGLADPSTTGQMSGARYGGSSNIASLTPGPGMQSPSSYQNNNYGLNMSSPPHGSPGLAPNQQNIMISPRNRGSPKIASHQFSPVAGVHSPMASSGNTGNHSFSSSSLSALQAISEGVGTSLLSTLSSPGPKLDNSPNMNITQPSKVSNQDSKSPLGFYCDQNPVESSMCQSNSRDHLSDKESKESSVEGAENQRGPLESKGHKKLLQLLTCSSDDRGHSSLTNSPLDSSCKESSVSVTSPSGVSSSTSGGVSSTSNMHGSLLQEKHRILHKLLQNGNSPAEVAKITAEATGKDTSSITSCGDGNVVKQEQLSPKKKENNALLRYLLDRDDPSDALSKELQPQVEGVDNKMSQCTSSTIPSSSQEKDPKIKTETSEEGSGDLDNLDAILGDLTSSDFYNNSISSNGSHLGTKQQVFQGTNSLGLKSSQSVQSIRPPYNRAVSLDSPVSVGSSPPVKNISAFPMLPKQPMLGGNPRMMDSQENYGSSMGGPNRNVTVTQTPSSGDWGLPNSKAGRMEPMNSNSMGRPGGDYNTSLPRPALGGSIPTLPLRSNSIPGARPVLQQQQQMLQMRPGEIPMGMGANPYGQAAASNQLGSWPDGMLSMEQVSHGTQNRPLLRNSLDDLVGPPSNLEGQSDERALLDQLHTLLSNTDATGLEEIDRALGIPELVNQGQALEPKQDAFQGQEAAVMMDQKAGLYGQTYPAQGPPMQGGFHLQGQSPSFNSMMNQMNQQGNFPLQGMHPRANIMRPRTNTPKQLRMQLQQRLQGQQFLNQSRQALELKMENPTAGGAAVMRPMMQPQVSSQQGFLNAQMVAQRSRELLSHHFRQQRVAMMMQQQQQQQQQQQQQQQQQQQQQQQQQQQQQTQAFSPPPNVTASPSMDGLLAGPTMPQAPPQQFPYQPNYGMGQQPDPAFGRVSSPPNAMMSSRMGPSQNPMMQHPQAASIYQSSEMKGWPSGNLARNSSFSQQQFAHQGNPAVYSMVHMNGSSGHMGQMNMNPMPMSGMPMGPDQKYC", "assay": "as §1, with “3 (SRC-3)” for “1 (SRC-1)”, “assays: 1301 (Confirmation screen.), 1048 (Primary screen.)]” for “assays (depositor defined):AID1300, AID1808, AID504735, AID631]”", "assay_type": "functional"}, "[4]": {"target": "Peroxisome proliferator-activated receptor gamma/Nuclear receptor coactivator 2 (Homo sapiens, UniProt P37231)", "assay": "TR-FRET dose response biochemical High Throughput Screening assay for agonists of the steroid receptor coactivator 2 (SRC-2) recruitment by the peroxisome proliferator-activated receptor gamma (PPAR gamma): non-selective agonists. [Related pubchem assays: 1297, 1032 ]", "assay_type": "functional"}, "[5]": {"target": "T1, Heat shock factor protein 1 (Mus musculus, UniProt P38532)", "T1 sequence (P38532 whole entry)": "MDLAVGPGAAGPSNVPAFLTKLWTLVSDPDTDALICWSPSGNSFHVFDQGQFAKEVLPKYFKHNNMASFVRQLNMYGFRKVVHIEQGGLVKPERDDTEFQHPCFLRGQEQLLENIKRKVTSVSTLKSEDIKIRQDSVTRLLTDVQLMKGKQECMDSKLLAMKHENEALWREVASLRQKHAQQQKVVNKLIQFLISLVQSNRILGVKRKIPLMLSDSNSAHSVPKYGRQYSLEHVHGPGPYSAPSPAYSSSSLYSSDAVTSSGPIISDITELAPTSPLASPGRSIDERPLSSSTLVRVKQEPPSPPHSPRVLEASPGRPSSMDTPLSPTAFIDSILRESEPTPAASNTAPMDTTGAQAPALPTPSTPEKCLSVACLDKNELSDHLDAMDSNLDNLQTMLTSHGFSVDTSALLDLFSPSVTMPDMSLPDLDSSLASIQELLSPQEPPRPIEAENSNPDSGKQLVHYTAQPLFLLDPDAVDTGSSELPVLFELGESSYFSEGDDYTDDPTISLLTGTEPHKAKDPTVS", "assay": "enhancement of HSF1-driven luciferase signal – cell-based, NIH3T3, luminescence, dose retest, confirmation (AID 435004)", "assay_type": "functional"}, "H9c2": {"test_system": "H9c2", "assay": "cells", "assay_type": "functional, cell-based", "details": "Rattus norvegicus, H9c2, Myocardium"}, "[6]": {"assay": "A Cell Based Secondary Assay To Explore Cytotoxicity of Compounds that Sensitize Mycobacterium Tuberculosis to Beta-Lactam Antibiotics.", "assay_type": "functional"}, "[7]": {"target": "T2, Apoptotic protease-activating factor 1 (Homo sapiens, UniProt O14727)", "T2 sequence (O14727 whole entry)": "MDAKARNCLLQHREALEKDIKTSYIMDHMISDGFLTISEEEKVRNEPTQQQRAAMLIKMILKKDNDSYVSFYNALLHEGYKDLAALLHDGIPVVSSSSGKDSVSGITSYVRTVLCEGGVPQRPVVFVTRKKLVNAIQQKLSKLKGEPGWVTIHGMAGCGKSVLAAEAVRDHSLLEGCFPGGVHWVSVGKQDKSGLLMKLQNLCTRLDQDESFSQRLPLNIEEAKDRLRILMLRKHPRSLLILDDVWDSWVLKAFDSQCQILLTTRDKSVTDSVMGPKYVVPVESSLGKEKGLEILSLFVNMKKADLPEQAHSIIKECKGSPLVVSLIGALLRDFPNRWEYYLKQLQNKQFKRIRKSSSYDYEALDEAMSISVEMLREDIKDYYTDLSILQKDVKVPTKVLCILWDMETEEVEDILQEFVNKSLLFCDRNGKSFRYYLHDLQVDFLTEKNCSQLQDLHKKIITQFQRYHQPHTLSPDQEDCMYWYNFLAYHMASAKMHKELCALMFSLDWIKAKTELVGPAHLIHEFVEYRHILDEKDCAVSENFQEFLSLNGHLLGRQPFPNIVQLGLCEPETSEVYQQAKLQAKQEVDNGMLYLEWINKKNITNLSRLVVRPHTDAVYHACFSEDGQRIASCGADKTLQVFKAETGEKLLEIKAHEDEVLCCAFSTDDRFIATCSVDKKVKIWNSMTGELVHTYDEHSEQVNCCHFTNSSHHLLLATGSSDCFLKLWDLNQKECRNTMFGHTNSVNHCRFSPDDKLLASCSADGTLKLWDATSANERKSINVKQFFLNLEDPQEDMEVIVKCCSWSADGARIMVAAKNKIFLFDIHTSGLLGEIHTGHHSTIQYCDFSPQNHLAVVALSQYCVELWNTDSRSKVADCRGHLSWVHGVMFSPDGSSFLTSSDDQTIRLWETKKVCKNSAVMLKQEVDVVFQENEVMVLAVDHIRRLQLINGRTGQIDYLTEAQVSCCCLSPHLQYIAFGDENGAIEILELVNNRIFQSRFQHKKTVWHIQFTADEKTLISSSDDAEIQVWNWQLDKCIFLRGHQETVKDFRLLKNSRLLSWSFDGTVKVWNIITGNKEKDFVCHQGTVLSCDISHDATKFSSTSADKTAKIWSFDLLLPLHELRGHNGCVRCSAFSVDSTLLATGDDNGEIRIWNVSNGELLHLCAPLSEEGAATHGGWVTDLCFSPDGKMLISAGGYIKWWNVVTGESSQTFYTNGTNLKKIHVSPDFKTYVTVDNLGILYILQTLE", "assay_type": "functional"}}, "note": "Activity calls are given as the source filed them.", "data": [{"smiles": "COC(=O)c1ccc(CSc2ncnc3c2oc2ccccc23)o1", "values": [{"measurement": "IC50", "setting": "Estrogen receptor beta", "value": "0.0578 µM (not active)"}, {"measurement": "EC50", "setting": "[1]", "value": "29.1 µM (inactive)"}, {"measurement": "IC50", "setting": "[2]", "value": "14.7 µM (active)"}, {"measurement": "EC50", "setting": "[3]", "value": "> 79.4 µM (not active)"}, {"measurement": "EC50", "setting": "[4]", "value": "> 8.82 µM (not active)"}, {"measurement": "EC50", "setting": "[5]", "value": "> 260 µM (inactive)"}]}, {"smiles": "Cc1ccc(N2C(=O)CS/C2=C(\\C(Cl)=C(Cl)Cl)[N+](=O)[O-])cc1", "values": [{"measurement": "IC50", "setting": "H9c2", "value": "> 79 µM (inactive)"}, {"measurement": "IC50", "setting": "[2]", "value": "27.7 µM (active)"}]}, {"smiles": "CC(C)CC(=O)N1CCN(c2ccc([N+](=O)[O-])c(NCc3ccccc3)c2)CC1", "values": [{"measurement": "CC50", "setting": "[6]", "value": "> 40 µM (active)"}]}, {"smiles": "Cc1nn(-c2ccccc2)c(O)c1/C=N/NC(=O)c1cccc([N+](=O)[O-])c1", "values": [{"measurement": "CC50", "setting": "[6]", "value": "7.57 µM (active)"}, {"measurement": "IC50", "setting": "[7]", "value": "13.2 µM (active)"}]}]}
